Results on one compound are retold here after ChEMBL document CHEMBL1764984 (J Med Chem, 2011).

Data set [1] can be described thus: Half life in Beagle dog at 10 mg/kg, po. It counts as ADME, organism-based, Canis lupus familiaris. On the set-up: dose 10 mg/kg, route oral. Conditions: in vivo.
The nature of data set [2]: Oral bioavailability in Beagle dog at 10 mg/kg. The data set is classed as ADME, organism-based, Canis lupus familiaris. Conditions: in vivo.
A short description of data set [3]: Clearance in Beagle dog at 10 mg/kg, iv. It counts as ADME, organism-based, Canis lupus familiaris. Further details: dose 10 mg/kg, route intravenous. The note with it: in vivo.
Data set [4] in a line: Tmax in Beagle dog at 10 mg/kg, po. Conditions: in vivo. It counts as ADME, organism-based, Canis lupus familiaris. Further details: dose 10 mg/kg, route oral.
The nature of data set [5]: AUC (infinity) in Beagle dog at 10 mg/kg, po. It counts as ADME, organism-based, Canis lupus familiaris. Further details: time infinity, dose 10 mg/kg, route oral. The note with it: plasma.
Data set [6] is described as follows: Volume of distribution at steady state in Beagle dog at 10 mg/kg, iv. It counts as ADME, organism-based, Canis lupus familiaris. Further details: dose 10 mg/kg, route intravenous. Conditions: in vivo, read-out: Vdss.
A short description of data set [7]: AUC (infinity) in Hanover-Wistar rat at 10 mg/kg, po. The data set is classed as ADME, organism-based. The note with it: plasma. Further details: dose 10 mg/kg, route oral, time infinity.
A short description of data set [8]: Plasma protein binding in Hanover-Wistar rat by untrafiltration method. The data set is classed as ADME, cell-free. Conditions: read-out: PPB (converted).
Data set [9] can be described thus: Cmax in Beagle dog at 10 mg/kg, po. On the set-up: dose 10 mg/kg, route oral. The data set is classed as ADME, organism-based, Canis lupus familiaris. The note with it: in vivo.
Data set [10] is described as follows: Plasma protein binding in Beagle dog by untrafiltration method. It counts as ADME, cell-free, Canis lupus familiaris. The note with it: read-out: PPB (converted).

As usually defined, the half-life is the time needed for the level to fall by half in the phase considered. Low values mean rapid decline, high ones slow decline. Broadly, the bioavailability is dose-corrected exposure relative to a reference, in per cent. A low value points to little systemic uptake. One may read the clearance as the rate of elimination divided by the concentration. One may read the Tmax as the time from dosing to the highest level. As a reminder, the AUC(0-inf) is total exposure, with the tail of the curve extrapolated. Low values mean low exposure, high ones high exposure. For orientation: Cmax means the peak of the concentration-time curve.

In data set [1], `Cl.Cn1c(=O)c(Oc2ccc(F)cc2F)cc2cnc(NC3CCOCC3)nc21` [R-1487 HYDROCHLORIDE] showed a half-life of 2.23 h. Also, the bioavailability in data set [2] was 10.3%. Besides, the clearance in data set [3] was 54.2 mL/min/kg. Further, in data set [4], the time of peak concentration (Tmax) stood at 0.5 h. For the same compound, the AUC(0-inf) in [5] came out at 310 ng·h/mL; in data set [7], 2350 ng·h/mL. Further, the Vd in data set [6] came out at 4.65 L/kg. The fraction unbound was 0.044 in data set [8] and 0.096 in [10]. Also, the Cmax in data set [9] came out at 110 ng/mL.
